# Source: US8497298B2, “Use of benzo-fused heterocycle sulfamide derivatives for lowering lipids and lowering blood glucose levels” (Janssen Pharmaceutica NV, priority 2005, dated 2013)
# Tested on: Zucker diabetic fatty (ZDF Gmi-fa/fa) rats
# Assay: Oral Glucose Tolerance Test (OGTT) in Zucker diabetic fatty rats, Day 7 (Example 15)
# Assay type: in vivo, rat
# Details: for AUC for blood glucose (OGTT) / OGTT blood glucose 30 min / OGTT blood glucose 60 min / OGTT blood glucose 90 min / OGTT blood glucose 120 min: Day 7; for OGTT blood glucose 0 min: Day 7, 4 hour-fasted, 2g/kg glucose
# Description: Compound #8 was suspended in 0.5% Methocel using a hand held homogenizer to reduce the particle size and a magnetic stir bar and stir plate to keep the particles homogeneously suspended throughout the dosing period. 0.5% Hydroxypropyl Methylcellulose (Methocel) used as vehicle/control. Compound #8 was tested in both diabetic models of mouse and rat.
# In this study, female Zucker diabetic fatty (ZDF Gmi-fa/fa) rats were selected for glucose lowering effect and oral glucose tolerance test (OGTT) studies. ZDF rats from (Charles River Laboratories, Wilmington, Mass.) at 7 weeks of age were individually housed and fed with C13004 diet (obtained from Research Diets, New Brunswick, N.J.). All of the rats were quarantined for a period of one week before transfer to the animal procedure room. A drop of blood (about 2 microliters) was collected by tail puncture and glucose concentration was detected with a glucometer (OneTouch UltraSmart, Lifescan, Milpitas, Calif.).
# ZDF rats at 8 weeks of age were randomized into four treatment groups based on glucose values (first criterion, average of 150 mg/dL) and body weight (second criterion, average of 240 g). 32 rats were allocated into 4 treatment groups of 8 rats each. The four groups were then treated with 0.5% Methocel (vehicle), 10 mg/kg Compound #8, 30 mg/kg Compound #8, and 100 mg/kg Compound #8 in vehicle, respectively.
# The rats were orally gavaged once daily (at 1500-1700 hour) with vehicle control (0.5% Methocel, pH7.4) or vehicle containing Compound #8 for 7 days. The dosing volume was 5 mL/kg body weight (1.2 mL for 250 gram rat). The rats were fed ad lib throughout the study.
# Basal glucose levels after treatments were measured on Day 4 and Day 6 in 2 hour fasted rats with a glucometer (OneTouch UltraSmart, Lifescan, Milpitas, Calif.) after collecting two microliters of blood through tail puncture. Oral Glucose Tolerance Test (OGTT) was performed on Day 7 in 4 hour-fasted rats. Two hours after being dosed with Compound #8 or vehicle, the rats were gavaged with a 2g/kg of 50% glucose solution right after basal glucose levels measurement (0 minute). Blood glucose levels were then measured at 30, 60, 90 and 120 minutes through tail puncture.
# Data from this study was analyzed using the standard two-tailed Student's t-test and are expressed below as means and standard errors.
smiles,measurement,setting,value
"NS(=O)(=O)NC[C@H]1COc2cc(Cl)ccc2O1 [Compound #8, (2S)-(−)-N-(6-Chloro-2,3-dihydro-benzo[1,4]dioxin-2-ylmethyl)-sulfamide]",AUC for blood glucose (OGTT),10 mg/kg,33279 ± 3607 mg·min/dL
same,OGTT blood glucose 30 min,10 mg/kg,281 ± 30
same,OGTT blood glucose 60 min,10 mg/kg,316 ± 33
same,OGTT blood glucose 90 min,10 mg/kg,293 ± 24
same,OGTT blood glucose 120 min,10 mg/kg,252 ± 30
same,OGTT blood glucose 0 min,10 mg/kg,186 ± 30
same,AUC for blood glucose (OGTT),30 mg/kg,28556 ± 2477 mg·min/dL
same,OGTT blood glucose 30 min,30 mg/kg,244 ± 24
same,OGTT blood glucose 60 min,30 mg/kg,263 ± 18
same,OGTT blood glucose 90 min,30 mg/kg,253 ± 23
same,OGTT blood glucose 120 min,30 mg/kg,221 ± 18
same,OGTT blood glucose 0 min,30 mg/kg,163 ± 18
same,AUC for blood glucose (OGTT),100 mg/kg,21529 ± 984 mg·min/dL
same,OGTT blood glucose 30 min,100 mg/kg,209 ± 14
same,OGTT blood glucose 60 min,100 mg/kg,200 ± 10
same,OGTT blood glucose 90 min,100 mg/kg,175 ± 8
same,OGTT blood glucose 120 min,100 mg/kg,145 ± 7
same,OGTT blood glucose 0 min,100 mg/kg,123 ± 5
